Measurements from US7932270B2 (Cytokinetics, Inc., priority 2006, dated 2011).

Biological target: T1, chicken gizzard smooth muscle myosin subfragment-1 chemically crosslinked to cardiac or skeletal actin (Gallus gallus, UniProt P10587)
T1 construct: chicken gizzard smooth muscle myosin subfragment-1; from tissue; host or cells: chicken gizzard
Assay: Smooth muscle myosin ATPase dose response assay (pyruvate kinase/horseradish peroxidase/pyruvate oxidase-coupled, amplex red fluorescence)
Assay type: biochemical
Conditions: read-out: IC50 Arithmetic Mean
Procedure, shortened: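 Chicken gizzard myosin S1 crosslinked to cardiac or skeletal actin, titrated to a set hydrolysis rate; 0.15 mM ATP, 12 mM PIPES pH 7.00, 100 mM KCl, 2 mM MgCl2. Pyruvate kinase/pyruvate oxidase/HRP coupling with amplex red fluorescence; IC50 from 4-parameter fit.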

T1 sequence (P02607 2-151): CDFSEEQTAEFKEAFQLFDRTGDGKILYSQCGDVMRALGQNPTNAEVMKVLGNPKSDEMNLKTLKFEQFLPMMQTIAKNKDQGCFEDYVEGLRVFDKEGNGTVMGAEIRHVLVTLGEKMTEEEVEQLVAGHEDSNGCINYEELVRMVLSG
T1 sequence (P10587 84-789): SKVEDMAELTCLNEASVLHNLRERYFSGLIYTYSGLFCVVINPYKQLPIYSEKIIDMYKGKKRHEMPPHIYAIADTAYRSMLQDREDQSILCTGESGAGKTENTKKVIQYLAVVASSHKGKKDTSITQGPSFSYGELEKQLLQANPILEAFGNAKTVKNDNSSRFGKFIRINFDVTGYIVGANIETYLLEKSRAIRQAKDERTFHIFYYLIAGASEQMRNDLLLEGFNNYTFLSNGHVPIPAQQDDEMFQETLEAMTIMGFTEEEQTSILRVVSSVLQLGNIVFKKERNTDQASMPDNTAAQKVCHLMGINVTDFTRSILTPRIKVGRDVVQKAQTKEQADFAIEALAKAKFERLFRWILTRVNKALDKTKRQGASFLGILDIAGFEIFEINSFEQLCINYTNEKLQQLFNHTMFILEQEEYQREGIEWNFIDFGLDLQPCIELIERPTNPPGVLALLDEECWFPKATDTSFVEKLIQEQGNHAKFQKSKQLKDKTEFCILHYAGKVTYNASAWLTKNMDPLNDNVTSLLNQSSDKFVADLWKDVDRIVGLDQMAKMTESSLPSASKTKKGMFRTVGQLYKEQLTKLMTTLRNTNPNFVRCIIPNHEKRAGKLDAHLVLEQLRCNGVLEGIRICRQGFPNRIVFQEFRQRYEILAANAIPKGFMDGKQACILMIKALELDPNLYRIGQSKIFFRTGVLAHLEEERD

Row | IC50 | Compound
1 | 636 nM | C[C@H](CNC(=O)c1cc(F)c(-c2cnn(C)c2)nc1NCCc1cccc(F)c1)NCC(N)=O [N-{(2R)-2-[(carbamoylmethyl)amino]propyl}(5-fluoro-2-{[2-(3-fluorophenyl)ethyl]amino}-6-(1-methylpyrazol-4-yl)(3-pyridyl))carboxamide]
2 | 791 nM | N#Cc1ccccc1-c1ccc(C(=O)NC[C@H]2CCCC(=O)N2CCCCN2C(=O)c3ccccc3C2=O)c(NCCc2cccc(F)c2)n1 [N-({(2R)-1-[4-(1,3-dioxobenzo[c]azolin-2-yl)butyl]-6-oxo(2-piperidyl)}methyl)(6-(2-cyanophenyl)-2-{[2-(3-fluorophenyl)ethyl]amino}(3-pyridyl))carboxamide]
3 | 3500 nM | N#Cc1ccccc1-c1ccc(C(=O)NCC2CCCN2CCCN)c(NCCc2cccc(F)c2)n1 (centres unmarked)
4 | 47 nM | Cn1cc(-c2nc(NCCc3cccc(F)c3)c(C(=O)NC[C@H]3CCCN3C(=O)CCCN)cc2Cl)cn1 [N-{[(2R)-1-(4-aminobutanoyl)pyrrolidin-2-yl]methyl}(5-chloro-2-{[2-(3-fluorophenyl)ethyl]amino}-6-(1-methylpyrazol-4-yl)(3-pyridyl))carboxamide]
5 | 104 nM | N#Cc1ccccc1-c1ccc(C(=O)NCC(N)=O)c(NCCc2cccc(F)c2)n1 [N-(carbamoylmethyl)(6-(2-cyanophenyl)-2-{[2-(3-fluorophenyl)ethyl]amino}(3-pyridyl))carboxamide]
6 | 32 nM | Cn1ccc(-c2ccc(C(=O)NCc3cccnc3CN)c(NCCc3cccc(F)c3)n2)n1 [N-{[2-(aminomethyl)(3-pyridyl)]methyl}(2-{[2-(3-fluorophenyl)ethyl]amino}-6-(1-methylpyrazol-3-yl)(3-pyridyl))carboxamide]
7 | 16900 nM | N#Cc1ccccc1-c1ccc(C(=O)NCc2ccc(N3CCOCC3)nc2)c(NCCc2cccc(F)c2)n1 [(6-(2-cyanophenyl)-2-{[2-(3-fluorophenyl)ethyl]amino}(3-pyridyl))-N-[(6-morpholin-4-yl(3-pyridyl))methyl]carboxamide]
8 | 7440 nM | CC(=O)N1CCNC[C@@H]1CNC(=O)c1ccc(-c2ccccc2C#N)nc1NCCc1cccc(F)c1 [N-[((2R)-1-acetylpiperazin-2-yl)methyl](6-(2-cyanophenyl)-2-{[2-(3-fluorophenyl)ethyl]amino}(3-pyridyl))carboxamide]
9 | 11500 nM | NC(=O)c1cccc(CCNc2nc(-c3ccccc3)ccc2C(=O)NCc2cccnc2)c1 [3-[2-({6-phenyl-3-[N-(3-pyridylmethyl)carbamoyl]-2-pyridyl}amino)ethyl]benzamide]
10 | 559 nM | O=C(NCc1cccnc1)c1ccc(-c2ccccc2)nc1NCC(O)c1cccc(F)c1 (centres unmarked) [(2-{[2-(3-fluorophenyl)-2-hydroxyethyl]amino}-6-phenyl(3-pyridyl))-N-(3-pyridylmethyl)carboxamide]
11 | 1520 nM | CS(=O)(=O)N1CC[C@@H]1CNC(=O)c1ccc(-c2ccccc2C#N)nc1NCCc1cccc(F)c1 [N-{[(2R)-1-(methylsulfonyl)azetidin-2-yl]methyl}(6-(2-cyanophenyl)-2-{[2-(3-fluorophenyl)ethyl]amino}(3-pyridyl))carboxamide]
12 | 24 nM | NCc1ncccc1CNC(=O)c1ccc(-c2cn[nH]c2)nc1NCCc1cccc(F)c1 [N-{[2-(aminomethyl)(3-pyridyl)]methyl}(2-{[2-(3-fluorophenyl)ethyl]amino}-6-pyrazol-4-yl(3-pyridyl))carboxamide]

Row | Compound | IC50
13 | Cn1cc(-c2nc(NCCc3cccc(F)c3)c(C(=O)NCc3cccnc3CNC(=O)OC(C)(C)C)cc2Cl)cn1 [N-[(2-{[(tert-butoxy)carbonylamino]methyl}(3-pyridyl))methyl](5-chloro-2-{[2-(3-fluorophenyl)ethyl]amino}-6-(1-methylpyrazol-4-yl)(3-pyridyl))carboxamide] | 414 nM
14 | CC(C)(C)OC(=O)NCCN1CCCC1CNC(=O)c1ccc(-c2ccccc2C#N)nc1NCCc1cccc(F)c1 (centres unmarked) [N-[(1-{2-[(tert-butoxy)carbonylamino]ethyl}pyrrolidin-2-yl)methyl](6-(2-cyanophenyl)-2-{[2-(3-fluorophenyl)ethyl]amino}(3-pyridyl))carboxamide] | 4830 nM
